Assay results reported in patent US20210046063A1 (University of Kentucky Research Foundation, priority 2019, published 2021).
“Also recorded” adds a separate entry of the source.

What was measured:
[1] = test system: lung cancer cell lines (A549/EML4-ALK, A549, A549TR, H1299, KP-7B); assay: Apoptosis of lung cancer cells (ICC for active caspase-3, scored by confocal microscopy); format: cell-based; details: 24 h
Description: Lung cancer cells treated with vehicle, CQ (100 nM), CZT (25 μM), and a combination of CZT (1 μM) and CQ (25 nM) for 24 h.

LLC1 cells = assay: LLC1-derived lung tumor nodules in mice; format: in vivo; details: FIG. 2
Description: Mice were injected i.v. with LLC1 cells, and 24 h later injected i.p. with CQ (25 mg/kg body weight), CZT (10 mg/kg body weight), CQ+CZT (25 and 10 mg/kg, resp.) or vehicle once every day for 5 consecutive days. After 28 days, the lungs were scored for tumor nodules. *P<0.01 by Anova test.

Par-4 secretion = details: cited from earlier work
[2] = test system: GRP78 on lung cancer cell surface; assay: Analysis for GRP78 at the cell surface of lung cancer cells; format: cell-based; details: CZT (1 μM), 24 h, FIG. 1B
Text: Analysis for GRP78 at the cell surface. Mean+SD shown. *P<0.01 by Anova or Student's t test. P>0.05 by Anova.
A lack of cell surface […] expression may prevent secreted Par-4 from inducing apoptosis in cancer cells.

Par-4 = details: cancer patients, Phase 1 clinical trials; cited from earlier work

Q: For CCN(CC)CCCC(C)Nc1ccnc2cc(Cl)ccc12 (stereo not drawn) [CQ, Chloroquine], which “apoptosis, CQ in conjunction with CZT added directly to cancer cells” value ([1]; combination of CZT (1 μM) and CQ (25 nM), P>0.05, FIG. 1C) is on record?
A: did not induce apoptosis

Q: And the “inhibition of lung tumor nodules by CQ in the presence of CZT, relative to CZT or CQ administered separately” value (LLC1 cells; LLC1-derived nodules in mice, CQ 25 mg/kg + CZT 10 mg/kg i.p.)?
A: significantly greater inhibition

Q: And the “Par-4 secretion from lung cancer cells” value (Par-4 secretion; lung cancer cells)?
A: did not show secretion of Par-4

Q: What about the “Par-4 secretion from normal cells” value (Par-4 secretion; normal cells, cell culture and mice) of the same molecule?
A: increased Par-4 secretion from normal cells

Q: With C[C@@H](Oc1cc(-c2cnn(C3CCNCC3)c2)cnc1N)c1c(Cl)ccc(F)c1Cl [CZT, Crizotinib] as the molecule, how does the “GRP78 expression at the cell surface” value [2] read?
A: upregulates GRP78 expression on the surface of lung cancer cells; also recorded: elevation of Par-4 receptor GRP78 on lung tumor cell surface

Q: And the “inhibition of lung tumor growth (lung tumor nodules)” value (LLC1 cells; LLC1 cells i.v., i.p. CQ 25 mg/kg, CZT 10 mg/kg, once daily for 5 days, lungs scored after 28 days)?
A: significant inhibition of lung tumor growth; also recorded: showed an effect

Q: For CCN(CCO)CCCC(C)Nc1ccnc2cc(Cl)ccc12 (stereo not drawn) [HCQ, hydroxychloroquine], which “Par-4 levels in plasma” value (Par-4) is on record?
A: elevated Par-4 levels in the plasma

Q: What about the “apoptosis in patients' tumors” value (Par-4) of the same molecule?
A: induced apoptosis in their tumors

B1: recombinant Par-4: recombinant tumor suppressor Prostate Apoptosis Response-4 protein, binds receptor GRP78 (protein, UniProt Q96IZ0 1-340, looked up)
PRKC apoptosis WT1 regulator …: MATGGYRTSSGLGGSTTDFLEEWKAKREKMRAKQNPPGPAPPGGGSSDAAGKPPAGALGTPAAAAANELNNNLPGGAPAAPAVPGPGGVNCAVGSAMLTRAAPGPRRSEDEPPAASASAAPPPQRDEEEPDGVPEKGKSSGPSARKGKGQIEKRKLREKRRSTGVVNIPAAECLDEYEDDEAGQKERKREDAITQQNTIQNEAVNLLDPGSSYLLQEPPRTVSGRYKSTTSVSEEDVSSRYSRTDRSGFPRYNRDANVSGTLVSSSTLEKKIEDLEKEVVRERQENLRLVRLMQDKEEMIGKLKEEIDLLNRDLDDIEDENEQLKQENKTLLKVVGQLTR
Q: Which “apoptosis (active caspase-3 positive cells), CZT together with recombinant Par-4” value ([1]; CZT (1 μM) + recombinant Par-4 (100 nM), A549/EML4-ALK, A549, A549TR, H1299, KP-7B cells, FIG. 1A) does the source give for B1 here?
A: increased apoptosis
